Active and inactive are the calls of the source. The calls are words filed in the database; no cut-off is given here.
How the values were obtained:
Acetylcholinesterase [1] = biological target: Acetylcholinesterase (Homo sapiens, UniProt P22303); test: Inhibition of human recombinant AChE preincubated for 1 min in presence of DNTB followed by addition of acetylthiocholine iodide substrate and measured after 20 mins by Ellman's method
Acetylcholinesterase [2] = biological target: Acetylcholinesterase (Electrophorus electricus, UniProt O42275); test: Inhibition of electric eel recombinant AChE preincubated for 1 min in presence of DNTB followed by addition of acetylthiocholine iodide substrate and measured after 20 mins by Ellman's method
Sequence of Acetylcholinesterase (Electrophorus electricus, UniProt O42275) (O42275 whole entry): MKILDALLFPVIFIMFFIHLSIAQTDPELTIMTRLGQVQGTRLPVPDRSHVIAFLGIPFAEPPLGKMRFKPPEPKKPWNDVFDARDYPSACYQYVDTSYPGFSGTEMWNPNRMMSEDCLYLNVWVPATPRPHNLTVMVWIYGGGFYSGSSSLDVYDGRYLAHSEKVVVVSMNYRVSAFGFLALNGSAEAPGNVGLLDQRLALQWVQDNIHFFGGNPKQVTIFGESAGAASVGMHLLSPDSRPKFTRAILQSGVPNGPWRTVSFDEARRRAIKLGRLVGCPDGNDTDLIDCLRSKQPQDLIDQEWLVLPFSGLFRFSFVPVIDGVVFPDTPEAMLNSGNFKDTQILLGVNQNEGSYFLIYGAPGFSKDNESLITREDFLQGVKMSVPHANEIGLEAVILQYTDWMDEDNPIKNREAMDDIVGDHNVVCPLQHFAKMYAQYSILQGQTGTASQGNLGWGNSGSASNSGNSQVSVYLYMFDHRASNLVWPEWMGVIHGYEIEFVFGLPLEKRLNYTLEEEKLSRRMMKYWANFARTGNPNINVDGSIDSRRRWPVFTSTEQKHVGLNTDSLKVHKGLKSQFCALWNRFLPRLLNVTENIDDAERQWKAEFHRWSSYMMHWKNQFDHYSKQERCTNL

[3] = biological target: Glycogen synthase kinase-3 beta (Homo sapiens, UniProt P49841); test: Inhibition of human recombinant N-terminal His-tagged GSK3beta expressed in Escherichia coli using RRRPASVPPSPSLS RHS(pS)HQRR as substrate incubated for 30 mins in presence of ATP by Kinase-Glo reagent based luminescence assay
Sequence of Glycogen synthase kinase-3 beta (P49841 whole entry): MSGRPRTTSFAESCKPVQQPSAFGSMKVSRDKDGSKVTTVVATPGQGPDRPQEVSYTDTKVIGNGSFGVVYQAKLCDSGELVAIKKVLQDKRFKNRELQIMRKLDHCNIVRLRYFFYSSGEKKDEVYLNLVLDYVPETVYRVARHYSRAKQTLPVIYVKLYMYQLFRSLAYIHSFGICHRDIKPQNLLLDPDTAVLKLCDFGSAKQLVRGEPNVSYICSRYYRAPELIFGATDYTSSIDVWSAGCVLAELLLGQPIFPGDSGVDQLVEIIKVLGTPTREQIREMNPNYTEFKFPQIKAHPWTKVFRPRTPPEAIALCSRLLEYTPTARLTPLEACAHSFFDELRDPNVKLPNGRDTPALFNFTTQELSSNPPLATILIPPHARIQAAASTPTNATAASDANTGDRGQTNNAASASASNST

Mus musculus [4] = test: Cognitive enhancing effect in mouse model of scopolamine-induced amnesia assessed as decrease in escape latency at 10 mg/kg/day, po measured by Morris water maze test; assay type: functional, organism-based
Mus musculus [5] = test: Improvement in learning and spatial memory in amyloid beta (1 to 42)-induced mouse model of Alzheimer's disease assessed as increase in spontaneous alteration at 10 mg/kg/day, po pretreated with amyloid beta42 for 3 days followed by treatment with compound and measured after 9 days measured by Y-maze test; assay type: functional, organism-based; details: time 9.0 day
Mus musculus [6] = test: Improvement in learning and spatial memory in amyloid beta (1 to 42)-induced mouse model of Alzheimer's disease at 10 mg/kg/day, po pretreated with amyloid beta42 for 3 days followed by treatment with compound and measured after 9 days measured by Y-maze test; assay type: functional, organism-based; details: time 9.0 day
[7] = Effective permeability of the compound by PAMPA-BBB assay; assay type: ADME; details: read-out: Peff
[8] = Drug level in ICR mouse brain at 10 mg/kg, po measured after 1 hr by LC/MS/MS analysis; assay type: ADME, organism-based; details: read-out: Ct
[9] = Drug level in ICR mouse brain at 10 mg/kg, po measured after 1.5 hrs by LC/MS/MS analysis; assay type: ADME, organism-based; details: read-out: Ct
[10] = Drug level in ICR mouse plasma at 10 mg/kg, po measured after 1 hr by LC/MS/MS analysis; assay type: ADME, organism-based
[11] = Drug level in ICR mouse plasma at 10 mg/kg, po measured after 1.5 hrs by LC/MS/MS analysis; assay type: ADME, organism-based
[12] = Ratio of drug level in brain to plasma of ICR mouse at 10 mg/kg, po measured after 1 hr by LC/MS/MS analysis; assay type: ADME, organism-based; details: brain and plasma
[13] = Ratio of drug level in brain to plasma of ICR mouse at 10 mg/kg, po measured after 1.5 hrs by LC/MS/MS analysis; assay type: ADME, organism-based; details: brain and plasma
HT-22 = test: Neuroprotective activity in mouse HT-22 cells assessed as glutamate-induced cell mortality at 6 uM preincubated for 1 hr followed by addition of glutamate and measured after 24 hrs (reference value: 58%); assay type: functional; details: time 25 hrs
[14] = AUC (0 to infinity) in Sprague-Dawley rat at 10 mg/kg, po measured up to 24 hrs by LC-MS/MS analysis; assay type: ADME, organism-based; set-up: route oral, dose 10 mg/kg, time <=24; details: in vivo
[15] = AUC (0 to infinity) in Sprague-Dawley rat at 1 mg/kg, iv measured up to 24 hrs by LC-MS/MS analysis; assay type: ADME, organism-based; set-up: route intravenous, dose 1 mg/kg, time <=24; details: in vivo
[16] = Cmax in Sprague-Dawley rat at 10 mg/kg, po measured up to 24 hrs by LC-MS/MS analysis; assay type: ADME, organism-based; set-up: route oral, dose 10 mg/kg, time <=24; details: in vivo
[17] = Cmax in Sprague-Dawley rat at 1 mg/kg, iv measured up to 24 hrs by LC-MS/MS analysis; assay type: ADME, organism-based; set-up: route intravenous, dose 1 mg/kg, time <=24; details: in vivo
[18] = Tmax in Sprague-Dawley rat at 10 mg/kg, po measured up to 24 hrs by LC-MS/MS analysis; assay type: ADME, organism-based; details: in vivo
[19] = Half life in Sprague-Dawley rat at 10 mg/kg, po measured up to 24 hrs by LC-MS/MS analysis; assay type: ADME, organism-based; details: in vivo
[20] = Half life in Sprague-Dawley rat at 1 mg/kg, iv measured up to 24 hrs by LC-MS/MS analysis; assay type: ADME, organism-based; details: in vivo
[21] = MRT (0 to infinity) in Sprague-Dawley rat at 10 mg/kg, po measured up to 24 hrs by LC-MS/MS analysis; assay type: ADME, organism-based; details: in vivo
[22] = MRT (0 to infinity) in Sprague-Dawley rat at 1 mg/kg, iv measured up to 24 hrs by LC-MS/MS analysis; assay type: ADME, organism-based; details: in vivo
[23] = Oral bioavailability in Sprague-Dawley rat at 10 mg/kg measured up to 24 hrs by LC-MS/MS analysis; assay type: ADME, organism-based; details: in vivo
[24] = biological target: T1, Acetylcholinesterase (Mus musculus) (UniProt P21836); details: ICR, dose 10.0 mg/kg, time 1.5 hrs
T1 sequence (whole entry): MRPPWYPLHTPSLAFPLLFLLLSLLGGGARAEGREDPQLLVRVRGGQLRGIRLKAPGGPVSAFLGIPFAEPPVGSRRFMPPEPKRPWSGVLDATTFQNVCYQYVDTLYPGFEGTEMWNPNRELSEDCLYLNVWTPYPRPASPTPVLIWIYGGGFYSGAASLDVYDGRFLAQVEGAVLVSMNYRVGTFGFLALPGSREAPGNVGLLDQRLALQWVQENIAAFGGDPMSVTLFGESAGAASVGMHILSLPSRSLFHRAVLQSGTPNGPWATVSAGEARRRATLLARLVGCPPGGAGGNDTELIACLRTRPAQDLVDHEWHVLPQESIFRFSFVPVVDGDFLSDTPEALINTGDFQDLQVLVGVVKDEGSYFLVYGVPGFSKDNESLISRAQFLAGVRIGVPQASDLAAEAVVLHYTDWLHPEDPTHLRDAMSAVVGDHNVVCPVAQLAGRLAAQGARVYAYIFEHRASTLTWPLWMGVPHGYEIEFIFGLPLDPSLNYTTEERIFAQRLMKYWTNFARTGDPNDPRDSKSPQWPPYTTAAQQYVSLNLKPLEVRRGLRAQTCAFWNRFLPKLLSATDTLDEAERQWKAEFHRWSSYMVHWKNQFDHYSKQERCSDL

[25] = biological target: T1, Acetylcholinesterase (Mus musculus); details: ICR, dose 10.0 mg/kg, time 1.5 hrs; remark: listed apart in the source

Sequence of Acetylcholinesterase (Homo sapiens, UniProt P22303) (P22303 whole entry): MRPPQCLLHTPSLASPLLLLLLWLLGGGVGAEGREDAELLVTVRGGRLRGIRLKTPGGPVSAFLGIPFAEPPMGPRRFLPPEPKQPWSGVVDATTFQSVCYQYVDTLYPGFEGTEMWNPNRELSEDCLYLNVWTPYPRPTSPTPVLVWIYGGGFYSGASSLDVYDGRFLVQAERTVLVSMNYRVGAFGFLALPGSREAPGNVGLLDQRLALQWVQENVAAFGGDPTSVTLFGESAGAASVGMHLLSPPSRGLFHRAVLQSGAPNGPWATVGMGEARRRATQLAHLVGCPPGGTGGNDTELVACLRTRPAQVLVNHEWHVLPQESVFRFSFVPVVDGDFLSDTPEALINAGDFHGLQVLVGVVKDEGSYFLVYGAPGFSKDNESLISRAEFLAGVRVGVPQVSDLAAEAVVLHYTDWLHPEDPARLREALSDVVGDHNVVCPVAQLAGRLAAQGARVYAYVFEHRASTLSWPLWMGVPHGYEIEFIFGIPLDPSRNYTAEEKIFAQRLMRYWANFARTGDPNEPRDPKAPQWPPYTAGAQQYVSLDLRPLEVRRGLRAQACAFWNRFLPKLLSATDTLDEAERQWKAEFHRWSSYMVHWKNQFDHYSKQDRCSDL

Compound: O=C(Nc1cncc(OCC2CCN(Cc3ccccc3)CC2)c1)c1ccnc2[nH]ccc12
- IC50 (Acetylcholinesterase [1]): 3.9 nM
- IC50 (Acetylcholinesterase [2]): 2.3 nM
- IC50 [3]: 837 nM

Compound: O=C(NCC1CCN(Cc2cccc(Cl)c2)CC1)c1cncc(NC(=O)c2ccnc(NC(=O)C3CC3)c2)c1
- IC50 (Acetylcholinesterase [1]): 1090 nM
- IC50 (Acetylcholinesterase [2]): 678 nM
- IC50 [3]: 231 nM

Compound: O=C(Nc1cccc(OCC2CCN(Cc3ccc(F)cc3)CC2)c1)c1ccnc(NC(=O)C2CC2)c1
- IC50 (Acetylcholinesterase [2]): > 10000 nM
- IC50 [3]: > 10000 nM

Compound: CC(=O)Nc1cc(C(=O)Nc2cccc(OCC3CCN(Cc4ccc(F)cc4)CC3)c2)ccn1
- IC50 (Acetylcholinesterase [2]): > 10000 nM
- IC50 [3]: > 10000 nM

Compound: O=C(Nc1cncc(C(=O)NC2CCN(Cc3cccc(Cl)c3)CC2)c1)c1ccnc(NC(=O)C2CC2)c1
- IC50 (Acetylcholinesterase [1]): 2500 nM
- IC50 (Acetylcholinesterase [2]): 951 nM
- IC50 [3]: 63 nM

Compound: COc1cc2c(cc1OC)C(=O)C(CC1CCN(Cc3ccccc3)CC1)C2 (stereo not given) [DONEPEZIL]
- IC50 [3]: > 10000 nM
- Activity (Mus musculus [4]): Active
- Activity (Mus musculus [5]): Active
- Activity (Mus musculus [6]): Active

Compound: CC(=O)Nc1cc(C(=O)Nc2cncc(OCC3CCN(Cc4ccc(F)cc4)CC3)c2)ccn1
- IC50 (Acetylcholinesterase [1]): 9 nM
- IC50 (Acetylcholinesterase [2]): 16 nM
- IC50 [3]: 3510 nM

Compound: O=C(Nc1cncc(OCC2CCN(Cc3ccccc3)CC2)c1)c1ccnc(NC(=O)C2CC2)c1
- IC50 (Acetylcholinesterase [1]): 2.6 nM
- IC50 (Acetylcholinesterase [2]): 1.6 nM
- IC50 [3]: 23 nM
- Papp [7]: 8.2 ×10⁻⁶ cm/s
- concentration at 1 h [8]: 34.4 ng/g
- concentration at 1.5 h [9]: 43.7 ng/g
- concentration at 1 h [10]: 112 ng/g
- concentration at 1.5 h [11]: 62.9 ng/g
- Kp at 1 h [12]: 0.306
- Kp at 1.5 h [13]: 0.695
- Activity (HT-22): 66%
- AUC(0-inf) [14]: 377 ng·h/mL
- AUC(0-inf) [15]: 152 ng·h/mL
- Cmax [16]: 47.1 ng/mL
- Cmax [17]: 98.3 ng/mL
- Tmax [18]: 1.7 h
- half-life [19]: 6.3 h
- half-life [20]: 21.4 h
- MRT inf [21]: 8.9 h
- MRT inf [22]: 10 h
- bioavailability [23]: 24.8%
- Activity (Mus musculus [4]): Active
- inhibition [24]: 73.1%
- inhibition [25]: 48.3%

Compound: O=C(NCC1CCN(Cc2cccc(F)c2)CC1)c1cncc(NC(=O)c2ccnc(NC(=O)C3CC3)c2)c1
- IC50 (Acetylcholinesterase [1]): 2390 nM
- IC50 (Acetylcholinesterase [2]): 1020 nM
- IC50 [3]: 97 nM

Compound: O=C(NCC1CCN(Cc2cccc(Cl)c2)CC1)c1cncc(NC(=O)c2ccnc3[nH]ccc23)c1
- IC50 (Acetylcholinesterase [1]): 1310 nM
- IC50 (Acetylcholinesterase [2]): 874 nM
- IC50 [3]: > 10000 nM

Compound: O=C(NCC1CCN(Cc2ccccc2)CC1)c1n[nH]c2ccc(-c3cccnc3)cc12
- IC50 (Acetylcholinesterase [1]): 1090 nM
- IC50 (Acetylcholinesterase [2]): 552 nM
- IC50 [3]: 95 nM

Compound: O=C(NCC1CCN(Cc2ccccc2F)CC1)c1cncc(NC(=O)c2ccnc(NC(=O)C3CC3)c2)c1
- IC50 (Acetylcholinesterase [1]): 1760 nM
- IC50 (Acetylcholinesterase [2]): 1720 nM
- IC50 [3]: 164 nM

Compound: O=C(NC1CCN(Cc2ccc(F)cc2)CC1)c1cncc(NC(=O)c2ccnc3[nH]ccc23)c1
- IC50 (Acetylcholinesterase [1]): 227 nM
- IC50 (Acetylcholinesterase [2]): 406 nM
- IC50 [3]: 4930 nM

Compound: O=C(NCC1CCN(Cc2ccccc2F)CC1)c1n[nH]c2ccc(-c3cccnc3)cc12
- IC50 (Acetylcholinesterase [1]): 2180 nM
- IC50 (Acetylcholinesterase [2]): 718 nM
- IC50 [3]: 79 nM

Compound: O=C(NCC1CCN(Cc2ccc(F)cc2)CC1)c1cncc(NC(=O)c2ccnc(NC(=O)C3CC3)c2)c1
- IC50 (Acetylcholinesterase [1]): 3030 nM
- IC50 (Acetylcholinesterase [2]): 1160 nM
- IC50 [3]: 244 nM

— ChEMBL document CHEMBL4831493 (Eur J Med Chem, 2021)
